# Tests used:
# [1] = tested on: Promega Mid Range Molecular Weight Standards; assay: Detection of fractionated protein in SDS-PAGE gels using dansyl derivatives made in acetone; settings: for lowest protein per band visible: 2% (v/v) eluate in 10% methanol
# Protocol: Several 15-well, SDS-PAGE minigels were poured as described in Example 27 and loaded with Promega Mid Range Molecular Weight Standards diluted as described in Example 27 to provide samples containing 1000, 300, 100, 50, 25, 12.5, and 6.25ng of each protein per band in separate lanes of the gel. The samples were fractionated by application of 20 mA per gel until the tracking dye reached the bottom of the gel. All the gels were placed in 10% trichloroacetic acid for 5 min and then incubated for 10 min in 10% (v/v) methanol. The gels were then incubated in a 10% methanol solution containing 2% (v/v) of the derivative eluates (dissolved in 50 ml ethanol) described in Example 28. The gels were transferred to a transilluminator and both visualized and photographed after two hours of staining. The following observations were made. Only the lanes containing 1000 and 300ng of protein per band were visible in the gel incubated with the n-butyl dansyl derivative. The lanes containing the 1000, 300, 100, 50, 25ng per band were visible in the gel incubated with the n-hexyl derivative as were some of the bands in the 12.5 ng per band lane.
# After overnight incubation in the stain solutions, the gels were re-observed and rephotographed.
# The gels were then placed in 1% acetic acid to remove any unbound stain and rephotographed after three hours of incubation in this solution at room temperature.
# [2] = Spectral analyses of Coomassie Blue R and Promega Green 1, 2, 3; assay type: physicochemical; settings: 1:1 methanol:water, 700 to 340 nm
# Protocol: The three solutions of Promega Green 1, 2, and 3, from examples 1, 2 and 3 respectively, were diluted approximately 500 fold into a 1:1 solution of methanol:water. The spectra of the resulting solutions and of a 12 μg/ml solution of Coomassie Blue R (in 1:1 methanol:water) were recorded from 700 to 340 nm versus 1:1 methanol:water. […] All of the derivatives gave essentially identical spectra; however, the maximal absorbance of the diluted Promega Green i was about twice that seen for the other derivatives. The derivatives had two peak absorptions in the region of the spectrum scanned, a major peak at around 630 nm and a second peak at around 440 nm. The following absorbances were recorded at the peaks near 630 nm for the three Promega Green dye solutions (diluted 1:500 in 1:1 methanol:water): […]
# [3] = tested on: Promega Mid Range Molecular Weight Standards; assay: Post-electrophoretic detection of protein with purified dansyl derivatives
# Protocol: Samples of the eluates from purification of the derivatives were diluted 20-fold with ethanol and the absorption of the resulting solutions from 400 to 220 nm was measured. The absorption of the solutions at 328 nm was used as an indication of the concentration of the derivative in the staining studies in Example 27.
# Several SDS-PAGE minigels were made as described in Experiments with Gene Fusions, Silhavy, Berman, Enquist, supra, using the SDS concentrations described by the authors. Samples of Promega Mid Range Molecular Weight Standards were diluted into the loading solution described in the reference above to produce solutions containing 200, 100, 50, 25, and 12.5 ng of each protein species in 10 μl of solution. These solutions were loaded onto the gels and the samples were fractionated in the gels by application of 10 mA per gel until the tracking dye for the samples reached the bottom of the gel. The gels were then rinsed 1 min in distilled water, 15 min in 10% trichloracetic acid (w/v), and then for 15 min in 10% methanol (v/v). The gel segments, approximately 5×6 cm containing the fractionated standard, were then transferred to a 2% ethanol solution (50 ml) containing 0.05 OD328 -equivalent of each of the dansyl derivatives (see Example 26).
# The gel segments were returned to their respective staining solutions and were incubated overnight. The following morning, all of the gel segments were again visualized on the transilluminator and photographed as described above. […] In general, relatively equivalent staining of bands was obtained as determined by the strength of the fluorescent signal observed for the various fractionated species.
# [4] = tested on: Promega Mid Range Molecular Weight standard; assay: Post-electrophoretic staining with fluorescein isothiocyanate derivatives; settings: for lowest protein per band stained: after overnight in 10% methanol; for lowest protein per band with visible bands / standards detected: 1:500 in 10% methanol, 1 hour, destained 30 min
# Protocol: Six 12% gels were made as described in Example 27 and were loaded with diluted Promega Mid Range Molecular Weight standard to produce lanes containing, per band, 1000, 500, 200, 100, 75, 50, 25 and 10 ng of protein. The gel was run as described in Example 27 and then the gels were incubated 15 min in 50% methanol. The gels were then transferred to individual 50 ml staining solutions, which were stock derivatized dye solutions of Example 36 diluted 1:500 with 10% methanol. After one hour, these solutions were removed and destaining with 50 ml of 10% methanol was performed. After an additional 30 min. the gels were visualized on a transilluminator and photographed. Protein bands were visible for the gels stained with amino fluorescein and p-amino benzoic acid fluorescein derivatives, however the bands were seen only in the lanes containing 1000, 500, and 200 ng of protein per band. […] At this point, the gel stained with the ethyl p-amino benzoyl derivative allowed detection of all of the proteins in the lanes containing as little as 75 ng of protein per band.
# The gels were then placed in 50 ml of 10% methanol and allowed to incubate overnight at room temperature. After overnight incubation, the gels were visualized on a transilluminator and photographed. […] The gel stained with the amino derivative (reaction 5) had faded to the point where protein species were only detected in the 1000 and 500 ng protein per band lanes. However, in these lanes, only particular protein species were stained, as described above.
compound,measurement,setting,value
CCOC(=O)c1ccc(NS(=O)(=O)c2cccc3c(N(C)C)cccc23)cc1,lowest protein per band visible,[1]; two hours of staining,25 ng
"CCOc1ccc(Nc2ccc(C(=C3C=CC(=[N+](CC)Cc4cccc(S(=O)(=O)[O-])c4)C=C3)c3ccc(N(CC)Cc4cccc(S(=O)(=O)O)c4)cc3)cc2)cc1 [Coomassie Blue R, reference compound]",maximal absorbance wavelength (major peak),[2],around 590 nm
"CN(C)c1cccc2c(S(N)(=O)=O)cccc12 [control dansyl amine, reference compound]",visibility of protein bands,[3]; overnight staining,no bands were seen
CCCCCCCCCCNS(=O)(=O)c1cccc2c(N(C)C)cccc12 [decyl derivative],lowest protein per band visible,[1]; two hours of staining,25 ng
same,protein per band at which most of the protein species were visible,"[1]; after 1% acetic acid, three hours",6.25 ng
same,protein per band at which at least some of the bands could be visualized,[1]; overnight staining,12.5 ng
O=C(O)c1cc(NC(=S)Nc2ccc(NC(=S)Nc3ccc(-c4c5ccc(=O)cc-5oc5cc(O)ccc45)c(C(=O)O)c3)cc2)ccc1-c1c2ccc(=O)cc-2oc2cc(O)ccc12 [difluorescein phenylenediamine],lowest protein per band stained,[4],200 ng
CCOC(=O)c1ccc(NC(=S)Nc2ccc(-c3c4ccc(=O)cc-4oc4cc(O)ccc34)c(C(=O)O)c2)cc1 [ethyl p-amino benzoic acid fluorescein],lowest protein per band with visible bands,[4],75 ng
same,lowest protein per band stained,[4],200 ng
CCCCNS(=O)(=O)c1cccc2c(N(C)C)cccc12 [n-butyl dansyl derivative],lowest protein per band visible,[1]; two hours of staining,300 ng
CCCCCCNS(=O)(=O)c1cccc2c(N(C)C)cccc12 [n-hexyl derivative],lowest protein per band visible,[1]; two hours of staining,25 ng
same,protein per band at which some of the bands were visible,[1]; two hours of staining,12.5 ng
CCCCCCCCNS(=O)(=O)c1cccc2c(N(C)C)cccc12 [octyl dansyl derivative],staining quality compared to the amino or butyl derivatives,[3],much better stains compared to the amino or butyl derivatives
same,visibility of protein bands,"[3]; 15 min staining, 0.05 OD328-equivalent in 2% ethanol, 200-12.5 ng per band",easily visualized in the photograph of the gel
same,change in staining of bovine serum albumin and ovalbumin,[3]; overnight staining,somewhat fainter after the overnight incubation
same,visibility of protein bands,[3]; overnight staining,easily visible
same,staining result relative to n-hexyl derivative,[1]; two hours of staining,"Essentially equivalent results, but with lower fluorescence intensities"
O=C(O)c1ccc(NC(=S)Nc2ccc(-c3c4ccc(=O)cc-4oc4cc(O)ccc34)c(C(=O)O)c2)cc1 [p-amino benzoic acid fluorescein],lowest protein per band with visible bands,[4],200 ng
same,standards detected,[4],"97, 55, 40 and 31 kDa"
same,lowest protein per band stained,[4],200 ng
NC(=S)Nc1ccc(-c2c3ccc(=O)cc-3oc3cc(O)ccc23)c(C(=O)O)c1 [reference compound],lowest protein per band with visible bands,[4],200 ng
same,standards detected,[4],"97, 66, 55 and 40 kDa"
same,lowest protein per band stained,[4],500 ng

# Reference: patent US5705649A, “Protein staining compositions and methods” (Promega Corporation, priority 1995, dated 1998)
